Reference: US20160177259A1, “[…]” (Evonik Degussa GmbH, priority 2014, published 2016)

System: Clostridium ljungdahlii
Assay: Formation of acetic acid and ethanol from synthesis gas in CGF1 mineral medium with refeeding of cysteine (Example 3)
Type: cell-based
Description: For the biotransformation of hydrogen and carbon dioxide to acetic acid and ethanol the homoacetogenic bacterium Clostridium ljungdahlii was cultivated on synthesis gas with refeeding of cysteine. All cultivation steps were carried out under anaerobic conditions in pressure-resistant glass bottles that can be closed airtight with a butyl rubber stopper.
The chemolithoautotrophic cultivation was carried out in a 1 L pressure-resistant glass bottle at 37° C., 100 rpm and a ventilation rate of 3 L/h with a premixed gas with 67% H2, 33% CO2 in an open water bath shaker for 69 h till OD600nm>0.4. The gas was discharged into the medium through a sparger with a pore size of 10 μm, which was mounted in the center of the reactors. Then the cell suspension was centrifuged and the cell pellet was resuspended in fresh CGF1 mineral medium as disclosed below.
For the production phase, as many washed cells from the preculture of C. ljungdahlii as necessary for an OD600nm of 0.2 were added to 100 ml mineral medium (CGF1 medium, pH 6.5, 1.4 g/L KOH, 2 g/L (NH4)2SO4, 1 g/L KH2PO4, 1 g/L K2HPO4, 10 mg/L FeSO4 X 7 H2O, 3.8 mg/L MnSO4 X 1 H2O, 246 mg/L MgSO4×7 H2O, aerated for 30 min with a premixed gas with 67% H2 and 33% CO2). […] The cultivation was carried out in 500 mL pressure-resistant glass bottles at 37° C., 150 rpm in an open water bath shaker for 163 h which were aerated to an overpressure of 0.8 bar with a premixed gas with 67% H2, 33% CO2 one time a day. The pH was held >5.0 by intermittent additions of a 140 g/L KOH solution. During the cultivation several 5 mL samples were taken to determinate OD600nm, pH and product formation. […] The determination of the product concentrations including the L-Cysteine concentration was performed by semiquantitative ^1H-NMR spectroscopy. As an internal quantification standard sodium trimethylsilylpropionate (T(M)SP) was used.

[1] = culture A, 400 mg/L L-cysteine-hydrochloride at start, no refeed, 0 h
[2] = culture A, 400 mg/L L-cysteine-hydrochloride at start, no refeed, 18.75 h
[3] = culture A, 400 mg/L L-cysteine-hydrochloride at start, no refeed, 41.5 h
[4] = culture A, 400 mg/L L-cysteine-hydrochloride at start, no refeed, 46.75 h
[5] = culture A, 400 mg/L L-cysteine-hydrochloride at start, no refeed, 65.5 h
[6] = culture A, 400 mg/L L-cysteine-hydrochloride at start, no refeed, 69.5 h
[7] = culture A, 400 mg/L L-cysteine-hydrochloride at start, no refeed, 89.75 h
[8] = culture A, 400 mg/L L-cysteine-hydrochloride at start, no refeed, 163.5 h
[9] = culture B, 200 mg/L L-cysteine-hydrochloride at start, no refeed, 0 h
[10] = culture B, 200 mg/L L-cysteine-hydrochloride at start, no refeed, 18.75 h
[11] = culture B, 200 mg/L L-cysteine-hydrochloride at start, no refeed, 41.5 h
[12] = culture B, 200 mg/L L-cysteine-hydrochloride at start, no refeed, 46.75 h
[13] = culture B, 200 mg/L L-cysteine-hydrochloride at start, no refeed, 65.5 h
[14] = culture B, 200 mg/L L-cysteine-hydrochloride at start, no refeed, 69.5 h
[15] = culture B, 200 mg/L L-cysteine-hydrochloride at start, no refeed, 89.75 h
[16] = culture B, 200 mg/L L-cysteine-hydrochloride at start, no refeed, 163.5 h
[17] = culture C, 200 mg/L L-cysteine-hydrochloride at start, re-fed 200 mg/L after 18, 41, 65, 89 h, 0 h
[18] = culture C, 200 mg/L L-cysteine-hydrochloride at start, re-fed 200 mg/L after 18, 41, 65, 89 h, 18.75 h
[19] = culture C, 200 mg/L L-cysteine-hydrochloride at start, re-fed 200 mg/L after 18, 41, 65, 89 h, 41.5 h
[20] = culture C, 200 mg/L L-cysteine-hydrochloride at start, re-fed 200 mg/L after 18, 41, 65, 89 h, 46.75 h
[21] = culture C, 200 mg/L L-cysteine-hydrochloride at start, re-fed 200 mg/L after 18, 41, 65, 89 h, 65.5 h
[22] = culture C, 200 mg/L L-cysteine-hydrochloride at start, re-fed 200 mg/L after 18, 41, 65, 89 h, 69.5 h
[23] = culture C, 200 mg/L L-cysteine-hydrochloride at start, re-fed 200 mg/L after 18, 41, 65, 89 h, 89.75 h
[24] = culture C, 200 mg/L L-cysteine-hydrochloride at start, re-fed 200 mg/L after 18, 41, 65, 89 h, 95.5 h
[25] = culture C, 200 mg/L L-cysteine-hydrochloride at start, re-fed 200 mg/L after 18, 41, 65, 89 h, 163.5 h

## Cl.N[C@@H](CS)C(=O)O [L-Cysteine-HCl, L-cysteine hydrochloride]
[1]
  Acetate: 34.0 mg/L
  Ethanol: 2.0 mg/L
  OD (600 nm): 0.206
[2]
  Acetate: 1400.0 mg/L
  Ethanol: 60.0 mg/L
  OD (600 nm): 0.232
[3]
  Acetate: 2550 mg/L
  Ethanol: 420 mg/L
  OD (600 nm): 0.293
[4]
  Acetate: 2700 mg/L
  Ethanol: 480 mg/L
  OD (600 nm): 0.281
[5]
  Acetate: 3500 mg/L
  Ethanol: 580 mg/L
  OD (600 nm): 0.324
[6]
  Acetate: 3700 mg/L
  Ethanol: 650 mg/L
  OD (600 nm): 0.366
[7]
  Ethanol: 580.0 mg/L
  OD (600 nm): 0.324
[8]
  Acetate: 6100.0 mg/L
  Ethanol: 670.0 mg/L
  OD (600 nm): 0.339
[9]
  Acetate: 35.0 mg/L
  Ethanol: 1.9 mg/L
  OD (600 nm): 0.197
[10]
  Acetate: 1400.0 mg/L
  Ethanol: 100.0 mg/L
  OD (600 nm): 0.261
[11]
  Acetate: 2150 mg/L
  Ethanol: 580 mg/L
  OD (600 nm): 0.279
[12]
  Acetate: 2200 mg/L
  Ethanol: 630 mg/L
  OD (600 nm): 0.269
[13]
  Acetate: 2200 mg/L
  Ethanol: 600 mg/L
  OD (600 nm): 0.271
[14]
  Acetate: 2200 mg/L
  Ethanol: 590 mg/L
  OD (600 nm): 0.259
[15]
  Acetate: 2350.0 mg/L
  Ethanol: 560.0 mg/L
  OD (600 nm): 0.241
[16]
  Acetate: 2550.0 mg/L
  Ethanol: 570.0 mg/L
  OD (600 nm): 0.237
Culture C (re-fed) compared with cultures A and B
  cell growth: stronger cell growth
Culture C (re-fed) compared with cultures A and B, production phase
  concentrations of acetate and ethanol: increased more
[17]
  Acetate: 27.0 mg/L
  Ethanol: 2.0 mg/L
  OD (600 nm): 0.209
[18]
  Acetate: 1400.0 mg/L
  Ethanol: 85.0 mg/L
  OD (600 nm): 0.245
[19]
  Acetate: 3000 mg/L
  Ethanol: 510 mg/L
  OD (600 nm): 0.339
[20]
  Acetate: 3250 mg/L
  Ethanol: 580 mg/L
  OD (600 nm): 0.335
[21]
  Ethanol: 790 mg/L
  OD (600 nm): 0.399
[22]
  Ethanol: 860 mg/L
  OD (600 nm): 0.392
[23]
  Acetate: 5000.0 mg/L
  Ethanol: 810.0 mg/L
  OD (600 nm): 0.431
[24]
  Acetate: 5600.0 mg/L
  Ethanol: 880.0 mg/L
  OD (600 nm): 0.434
[25]
  Acetate: 7700.0 mg/L
  Ethanol: 960.0 mg/L
  OD (600 nm): 0.481
